# Compound: COc1cc([C@@H]2c3cc4c(cc3[C@@H](O[C@@H]3O[C@@H]5CO[C@@H](C)O[C@H]5[C@H](O)[C@H]3O)[C@H]3COC(=O)[C@H]23)OCO4)cc(OC)c1O [Etoposide] + Nc1nc2[nH]cc(CCc3ccc(C(=O)N[C@@H](CCC(=O)O)C(=O)O)cc3)c2c(=O)[nH]1 [Pemetrexed] (partner 0.2 µM)
# Test: relative viability (nuclei count vs DMSO), 5 days (fraction); higher = more cells survive
# Conditions: first compound 0.01 µM
# How it was run: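 Lung cancer cell lines in 1536-well plates were dosed by pin tool the day after seeding, either with one drug alone or with a fixed anchor-drug dose plus five library-drug doses (not always all listed) in √10 steps. After 5 days, cells were fixed and their nuclei stained in one step (final 0.05% Triton X-100, 1% formaldehyde, 1 ug/ml Hoechst), then counted on 4× images. Relative viability is the nuclei count in treated wells divided by that in vehicle wells. Values are medians of duplicate plates.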
row,Cell Line,relative viability
1,COR-L 105,1.03
2,LOU-NH91,0.403
3,ChaGo-K-1,0.267
4,NCI-H2170,0.285
5,NCI-H3122,0.21
6,HOP-62,0.389
7,LU99A,0.161
8,BEN,0.87
9,HARA,0.235
10,HCC-78,0.901
11,NCI-H441,0.254
12,LCLC-97TM1,0.176
13,NCI-H2009,0.976
14,A-427,0.999
15,NCI-H460,0.0661
16,NCI-H1734,0.391
17,NCI-H520,0.633
18,NCI-H2405,1.07
19,SW 1573,0.877
20,NCI-H1395,0.765
21,201T,0.325
22,NCI-H1915,0.504
23,HCC-827,0.262
24,LXF-289,0.961
25,NCI-H2347,0.454
26,CAL-12T,1.02
27,NCI-H1651,0.707
28,EPLC-272H,0.344
29,NCI-H23,0.659

# Same assay, conditions: first compound 0.03162 µM
row,Cell Line,relative viability
1,COR-L 105,1.02
2,LOU-NH91,0.414
3,ChaGo-K-1,0.261
4,NCI-H2170,0.26
5,NCI-H3122,0.207
6,HOP-62,0.361
7,LU99A,0.18
8,BEN,1.05
9,HARA,0.309
10,HCC-78,0.954
11,NCI-H441,0.257
12,LCLC-97TM1,0.196
13,NCI-H2009,0.957
14,A-427,1.06
15,NCI-H460,0.0549
16,NCI-H1734,0.49
17,NCI-H520,0.801
18,NCI-H2405,1.14
19,SW 1573,0.785
20,NCI-H1395,0.894
21,201T,0.343
22,NCI-H1915,0.516
23,HCC-827,0.266
24,LXF-289,0.952
25,NCI-H2347,0.487
26,CAL-12T,1.29
27,NCI-H1651,0.728
28,EPLC-272H,0.327
29,NCI-H23,0.697

# Same assay, conditions: first compound 0.1 µM
row,Cell Line,relative viability
1,COR-L 105,1.27
2,LOU-NH91,0.469
3,ChaGo-K-1,0.259
4,NCI-H3122,0.206
5,HOP-62,0.378
6,LU99A,0.186
7,HARA,0.25
8,HCC-78,0.84
9,NCI-H441,0.235
10,LCLC-97TM1,0.168
11,NCI-H2009,1.12
12,A-427,0.778
13,NCI-H460,0.061
14,NCI-H1734,0.408
15,NCI-H520,0.708
16,NCI-H2405,0.846
17,SW 1573,0.397
18,NCI-H1395,0.758
19,201T,0.355
20,NCI-H1915,0.484
21,HCC-827,0.127
22,LXF-289,1.04
23,NCI-H2347,0.401
24,CAL-12T,1.07
25,NCI-H1651,0.466
26,EPLC-272H,0.318
27,NCI-H23,0.472

# Same assay, conditions: first compound 0.3162 µM
row,Cell Line,relative viability
1,COR-L 105,0.836
2,LOU-NH91,0.359
3,ChaGo-K-1,0.261
4,NCI-H2170,0.261
5,NCI-H3122,0.19
6,HOP-62,0.318
7,LU99A,0.163
8,BEN,0.727
9,HARA,0.261
10,HCC-78,0.916
11,NCI-H441,0.193
12,LCLC-97TM1,0.18
13,NCI-H2009,0.703
14,A-427,0.607
15,NCI-H460,0.0772
16,NCI-H1734,0.415
17,NCI-H520,0.65
18,NCI-H2405,0.935
19,SW 1573,0.259
20,NCI-H1395,0.823
21,201T,0.318
22,NCI-H1915,0.474
23,HCC-827,0.236
24,LXF-289,0.788
25,NCI-H2347,0.386
26,CAL-12T,0.963
27,NCI-H1651,0.382
28,EPLC-272H,0.315
29,NCI-H23,0.411

# Same assay, conditions: first compound 1 µM
row,Cell Line,relative viability
1,COR-L 105,0.844
2,LOU-NH91,0.346
3,ChaGo-K-1,0.218
4,NCI-H2170,0.252
5,NCI-H3122,0.179
6,HOP-62,0.243
7,LU99A,0.167
8,BEN,0.669
9,HARA,0.232
10,HCC-78,0.906
11,NCI-H441,0.153
12,LCLC-97TM1,0.118
13,NCI-H2009,0.57
14,A-427,0.305
15,NCI-H460,0.0604
16,NCI-H1734,0.328
17,NCI-H520,0.485
18,NCI-H2405,0.365
19,SW 1573,0.148
20,NCI-H1395,0.599
21,201T,0.32
22,NCI-H1915,0.459
23,HCC-827,0.192
24,LXF-289,0.285
25,NCI-H2347,0.383
26,CAL-12T,0.484
27,NCI-H1651,0.127
28,EPLC-272H,0.308
29,NCI-H23,0.216

# From the supplement of paper PMC10307832
